{"source": "patent US20240238221A1", "about": "“[…] TREATING NEUROPATHIC PAIN IN COVID-19 PATIENTS” (Grünenthal GmbH, priority 2021, published 2024)", "origin": "cited, not measured here", "key": {"[1]": {"system": "UGT1A6, UGT1A9 and UGT2B7", "conditions": "mediated via UGT mainly UGT1A6, UGT1A9 and UGT2B7 isoforms"}, "[2]": {"conditions": "in the investigated dose ranges; vs. morphine, oxycodone or hydromorphone"}, "serotonin reuptake": {"system": "serotonin reuptake", "conditions": "unlike tramadol"}, "[3]": {"conditions": "at analgesic doses vs. Morphine"}}, "data": [{"smiles": "CC[C@@H](c1cccc(O)c1)[C@@H](C)CN(C)C", "note": "[Tapentadol]", "values": [{"measurement": "major elimination pathway", "setting": "[1]", "value": "conjugation with glucuronic acid"}, {"measurement": "risk of drug-drug interactions at the CYP450 level", "setting": "CYP450", "value": "low risk"}, {"measurement": "analgesic efficacy", "setting": "[2]", "value": "comparable to that of typical strong opioids"}, {"measurement": "serotonin reuptake inhibition", "setting": "serotonin reuptake", "value": "only weak serotonin reuptake inhibition"}, {"measurement": "immunosuppressive activity", "setting": "[3]", "value": "lower immunosuppressive activity"}]}]}
